Data reported in patent US10532081B2, “Method of ameliorating or preventing the worsening or the progression of symptoms of BPH” (Nymox Corporation, priority 2016, dated 2020).
Marks after values point to notes of the source that are not given here.

System: Patients with BPH
Test: Double-blind clinical study: intraprostatic injection in patients with BPH, symptoms evaluated by International Prostate Symptom Score (IPSS)
Assay type: in vivo, human
Excerpt: The International Prostate Symptom Score (I-PSS) is based on the answers to seven questions concerning urinary symptoms and one question concerning quality of life. Each question concerning urinary symptoms allows the patient to choose one out of six answers indicating increasing severity of the particular symptom. The answers are assigned points from 0 to 5. The total score can therefore range from 0 to 35 (asymptomatic to very symptomatic). The questions refer to the following urinary symptoms:
Patients with BPH were given an intraprostatic injection of either a) SEQ ID NO. 66 (Ile-Asp-Gln-Gln-Val-Leu-Ser-Arg-Ile-Lys-Leu-Glu-Ile-Lys-Arg-Cys-Leu) in phosphate buffered saline pH 7.2 (“PBS”) or b) PBS alone, under double-blind conditions by a urologist in an office setting under ultrasound guidance. Patients were followed for 1 to 6 years with regular physical examinations, laboratory tests, and evaluations of symptoms. Symptomatic evaluation was measured by the International Prostate Symptom Score (IPSS) which is a quantitative scale used to gauge prostatic symptomatic improvement or worsening. The IPSS quantifies the following: 1) incomplete bladder emptying after urination; 2) frequent urination; 3) stopping and starting during urination; 4) urgent need to urinate; 5) weakness of urinary stream; 6) need to push or strain during urination; 7) need to urinate after going to sleep at night (nocturia). The difference from baseline IPSS was compared in all patients who were given an intraprostatic injection of SEQ ID NO. 66 to the difference from baseline IPSS in patients who received PBS alone. […] 66 treated patients, there was also an unexpected decrease in the incidence of worsening and progression in symptoms in patients treated with SEQ ID NO. 66.
Patients with BPH were given an intraprostatic injection of either a) SEQ ID NO. 66 in phosphate buffered saline pH 7.2 (“PBS”) or b) PBS alone, under double-blind conditions by a urologist in an office setting under ultrasound guidance. Subsequently, 326 placebo and SEQ ID NO. 66 treated subjects were administered an intraprostatic injection of SEQ ID NO. 66 (2.5 mg). Patients were followed for 1 to 6 years with physical examinations, laboratory tests, and evaluations of symptoms. Symptomatic evaluation was measured by the International Prostate Symptom Score (IPSS) which is a quantitative scale used to gauge prostatic symptomatic improvement or worsening. The IPSS quantifies the following: 1) incomplete bladder emptying after urination; 2) frequent urination; 3) stopping and starting during urination; 4) urgent need to urinate; 5) weakness of urinary stream; 6) need to push or strain during urination; 7) need to urinate after going to sleep at night (nocturia). The difference from baseline IPSS was compared in placebo patients who subsequently received SEQ ID NO. 66 vs results in patients who received PBS alone. […] 66 treated patients there was also an unexpected decrease in the incidence of worsening or lack of improvement in symptoms in patients treated with SEQ ID NO. 66.
Patients with BPH were given an intraprostatic injection of either a) SEQ ID NO. 66 in phosphate buffered saline pH 7.2 (“PBS”) or b) PBS alone, under double-blind conditions by a urologist in an office setting under ultrasound guidance. Subsequently, 326 subjects were given an intraprostatic injection of SEQ ID NO. 66 (2.5 mg). Symptomatic evaluation was measured by the International Prostate Symptom Score (IPSS) which is a quantitative scale used to gauge prostatic symptomatic improvement or worsening. The IPSS quantifies the following: 1) incomplete bladder emptying after urination; 2) frequent urination; 3) stopping and starting during urination; 4) urgent need to urinate; 5) weakness of urinary stream; 6) need to push or strain during urination; 7) need to urinate after going to sleep at night (nocturia). […]

## IDQQVLSRIKLEIKRCL [SEQ ID NO: 66, NTP peptide Ile-Asp-Gln-Gln-Val-Leu-Ser-Arg-Ile-Lys-Leu-Glu-Ile-Lys-Arg-Cys-Leu, injected intraprostatically in phosphate buffered saline pH 7.2]
Example 1: all patients given one intraprostatic injection of SEQ ID NO. 66 in PBS, followed 1 to 6 years, p < .02 vs PBS alone
  Percentage of worsening of IPSS: 13.1%*
Example 2: placebo patients who subsequently received intraprostatic SEQ ID NO. 66 (2.5 mg), followed 1 to 6 years, p < 0.0001 vs PBS alone
  Percentage of worsening of IPSS or no improvement in IPSS: 17.3%*
Example 3: patients who received two intraprostatic injections of SEQ ID NO. 66 (second 2.5 mg), p < 0.0001 vs PBS alone
  Percentage of worsening of IPSS or no improvement in IPSS: 17.6%*
Example 4: all placebo and SEQ ID NO. 66 treated patients subsequently given intraprostatic SEQ ID NO. 66 (2.5 mg), followed 1 to 6 years, p < .0001 vs PBS alone
  Percentage of worsening of IPSS or no improvement of IPSS: 17.5%*
Example 5: placebo patients who subsequently received intraprostatic SEQ ID NO. 66 (2.5 mg), followed 1 to 6 years, p < 0.0001 vs PBS alone
  Percentage of worsening of IPSS: 9.0%*
Example 6: patients who received SEQ ID NO. 66 and subsequently SEQ ID NO. 66 (2.5 mg) intraprostatic, followed 1 to 6 years, p < 0.05 vs PBS alone
  Percentage of worsening of IPSS: 13.5%*
Example 7: all placebo and SEQ ID NO. 66 treated patients subsequently given intraprostatic SEQ ID NO. 66 2.5 mg, followed 1 to 6 years, p < .0001 vs PBS alone
  Percentage of worsening of IPSS: 11.7%*
Example 8: patients given one intraprostatic injection of SEQ ID NO. 66 in PBS, followed 1 to 6 years, p < .003 vs PBS alone
  Percentage of worsening of IPSS or no improvement of IPSS: 36.4%*
SEQ ID NO. 66 patients subsequently treated with SEQ ID NO. 66 (two injections)
  improvement of symptoms (difference from baseline IPSS) compared to PBS alone: more improvement
All placebo and SEQ ID NO. 66 treated patients subsequently treated with SEQ ID NO. 66 (2.5 mg)
  improvement of symptoms (difference from baseline IPSS) compared to PBS alone: more improvement
One intraprostatic injection of SEQ ID NO. 66, followed 1 to 6 years
  improvement of symptoms (difference from baseline IPSS) compared to PBS alone: more improvement
Placebo patients subsequently treated with SEQ ID NO. 66 (2.5 mg)
  improvement of symptoms (difference from baseline IPSS) compared to PBS alone: more improvement
